Source: patent US11807627B2, “Morphic forms of complement factor D inhibitors” (priority 2018, dated 2023)
In brackets after ≈: the same amount, converted by molar mass.

Experiments:
[1] = Interconversion experiments: heat stress of forms (Table 6); format: physicochemical; conditions: no solvent
Experimental: Saturated solutions of Compound 3 or solids generated from crystallization attempts were prepared. A small quantity of the sample was placed into an oven set at a specified temperature. The samples were monitored, microscopically, for signs of crystallization.

[2] = Vapor stress experiments at room temperature; format: physicochemical
From the text: Compound 3 was placed into vials which were sealed into chambers containing organic solvents. The samples were kept under these conditions for a period of days and then checked for signs of morphology changes.

[3] = Interconversion experiments: competitive slurries (Example 2, Table 6); format: physicochemical
Experimental: A solution of Compound 3 and solvent/solvent system of interest was prepared. Solids persisted in solution. The samples were placed onto a stir plate at ambient (RT) or elevated (ET) temperatures. The samples were monitored to ensure that solids persisted during the slurry process. The solids were collected via vacuum filtration and dried under ambient conditions. […] At ambient temperature, Forms B and M are both present after almost a week of slurrying.

[4] = Drying of isolated samples at 50° C. for approximately 24 hours; format: physicochemical
Experimental: Samples produced from thermal cycling, cooling and evaporation experiments were dried at 50° C. for approximately 24 hours to assess any de-solvation/dehydration. From temperature cycling experiments, 3 samples converted upon drying: • Acetonitrile sample converted from Form J to amorphous; • 40% Ethanol/60% Water (% v/v) converted from Form N to Form P; and • Methanol sample converted from Form O to amorphous.

[5] = Thermogravimetric/differential thermal analysis (TG/DTA); format: physicochemical; conditions: Table 22B
Experimental: Approximately, 5 mg of material was weighed into an open aluminium pan and loaded into a simultaneous thermogravimetric/differential thermal analyzer (TG/DTA) and held at room temperature. The sample was then heated at a rate of 10° C./min from 20° C. to 400° C. during which time the change in sample weight occurred was recorded along with any differential thermal events (DTA). Nitrogen was used as the purge gas at a flow rate of 300 cm^3/min.

[6] = ICH stability study of amorphous Compound 2; format: physicochemical
From the text: Compound 2 stored in double LDPE bag with silica gel in aluminum receptacle with lid had the following stability characteristics described in Table 9.

[7] = Caco2 permeability and efflux ratio; format: in vitro ADME; conditions: human, Caco-2; Caco2; read-out: Efflux ratio (B-A/A-B)
Caco2 = Caco2 permeability and efflux ratio; format: in vitro ADME; conditions: A-B
[8] = Dose number and BCS classification; format: physicochemical
Thermal stability by TGA = format: physicochemical; conditions: to 150° C.
Experimental: TG analyses were performed using a TA Instruments Q5000 IR thermogravimetric analyzer. Temperature calibration was performed using nickel and Alumel™. Each sample was placed in an aluminum pan. The sample was hermetically sealed, the lid pierced, then inserted into the TG furnace. The furnace was heated under nitrogen. The method code on the thermogram is an abbreviation for the start and end temperature as well as the heating rate; e.g., […] means “from 25° C. to 350° C., at 10° C./min”.

[9] = Solution stress testing (acid, base, oxidative degradation); format: physicochemical
[10] = Solid state stress testing (temperature, humidity, storage, photostability); format: physicochemical
[11] = pH experiments and SIF/SGF/FaSSIF/FeSSIF solubility (Examples 3 and 4); format: physicochemical
[12] = Solvent solubility screen by solvent addition (lyophilized material); format: physicochemical; conditions: thermodynamic from solid
Experimental: A solvent solubility screen was conducted using 32 solvent systems. Approximately 360 mg of Compound 3 Form A was weighed into a 20 mL glass vial and dissolved using 18 mL of 1,4-dioxane. 0.5 mL of the solution was then dispensed into thirty-four 2 mL glass vials (approx. 10 mg per vial). The Compound 3 Form A solutions were then frozen (at −50° C.) and dried by lyophilization using a Lablyo mini freeze drier. Post-lyophilization, a sub-sample was taken and analyzed by XRPD. Material was successfully rendered amorphous by lyophilization.
The material produced from lyophilization was used for the solubility assessment. Solubility was estimated by a solvent addition technique. The solubility study was completed as follows: • Each solvent system was added to the appropriate vial in 5 volume aliquots until 100 volumes had been added or until the API dissolved; • Between each addition, samples were heated to 40° C. to check dissolution at elevated temperatures; • If 100 volumes of solvent were added without dissolution, solubility was calculated to be below this point.

[13] = Storage stability of Compound 3 forms (80° C., 40° C./75% RH, 25° C./60% RH, ambient); format: physicochemical; conditions: 40° C./75% RH or 25° C./60% RH, capped or uncapped vial
Experimental: No changes by XRPD or HPLC purity were observed when the material was stored at 40° C./75% RH, 80° C. or under ambient conditions.

## CC(=O)c1nn(CC(=O)N2[C@H](C(=O)Nc3nc(Br)ccc3C)C[C@@]3(C)C[C@@H]23)c2ccc(-c3cnc(C)nc3)cc12 [Form F + C]
[1]; ~50° C.
  Interconversion: XRPD Result after heating: Form F + C

## CC(=O)c1nn(CC(=O)N2[C@H](C(=O)Nc3nc(Br)ccc3C)C[C@@]3(C)C[C@@H]23)c2ccc(-c3cnc(C)nc3)cc12 [Disordered]
[2]; EtOAc vapor
  Vapor stress: XRPD Result: Form B
[2]; MTBE vapor
  Vapor stress: XRPD Result: Form C

## CC(=O)c1nn(CC(=O)N2[C@H](C(=O)Nc3nc(Br)ccc3C)C[C@@]3(C)C[C@@H]23)c2ccc(-c3cnc(C)nc3)cc12 [Form E]
[1]; ~50° C.
  Interconversion: XRPD Result after heating: Form G

## CC(=O)c1nn(CC(=O)N2[C@H](C(=O)Nc3nc(Br)ccc3C)C[C@@]3(C)C[C@@H]23)c2ccc(-c3cnc(C)nc3)cc12 [Form M]
[3]; Forms B and M, approximately 50° C.
  Relative stability in competitive slurry: most stable

## CC(=O)c1nn(CC(=O)N2[C@H](C(=O)Nc3nc(Br)ccc3C)C[C@@]3(C)C[C@@H]23)c2ccc(-c3cnc(C)nc3)cc12 [Form C]
[1]; ~50° C.
  Interconversion: XRPD Result after heating: Form C

## CC(=O)c1nn(CC(=O)N2[C@H](C(=O)Nc3nc(Br)ccc3C)C[C@@]3(C)C[C@@H]23)c2ccc(-c3cnc(C)nc3)cc12 [A vs. B]
[3]; ACN, RT Slurry
  Interconversion: XRPD Result after slurry: Form E
[3]; EtOAc, RT Slurry
  Interconversion: XRPD Result after slurry: Form B
[3]; EtOAc, ~50° C. Slurry
  Interconversion: XRPD Result after slurry: Form B

## CC(=O)c1nn(CC(=O)N2[C@H](C(=O)Nc3nc(Br)ccc3C)C[C@@]3(C)C[C@@H]23)c2ccc(-c3cnc(C)nc3)cc12 [B, G, M]
[3]; EtOAc, ~50° C. Slurry
  Interconversion: XRPD Result after slurry: Form M*

## CC(=O)c1nn(CC(=O)N2[C@H](C(=O)Nc3nc(Br)ccc3C)C[C@@]3(C)C[C@@H]23)c2ccc(-c3cnc(C)nc3)cc12 [A, B, G]
[3]; EtOAc, RT Slurry
  Interconversion: XRPD Result after slurry: Form B

## CC(=O)c1nn(CC(=O)N2[C@H](C(=O)Nc3nc(Br)ccc3C)C[C@@]3(C)C[C@@H]23)c2ccc(-c3cnc(C)nc3)cc12 [Form J + Form L]
[1]; ~50° C.
  Interconversion: XRPD Result after heating: Form G

## CC(=O)c1nn(CC(=O)N2[C@H](C(=O)Nc3nc(Br)ccc3C)C[C@@]3(C)C[C@@H]23)c2ccc(-c3cnc(C)nc3)cc12 [Form N]
[4]
  Form after drying (de-solvation/dehydration): Form P
[5]
  Onset Temp: Weak thermal events: onset of 134.7 °C

## CC(=O)c1nn(CC(=O)N2[C@H](C(=O)Nc3nc(Br)ccc3C)C[C@@]3(C)C[C@@H]23)c2ccc(-c3cnc(C)nc3)cc12 [Form O]
[4]
  Form after drying (de-solvation/dehydration): amorphous
[5]; listed as Pattern O
  Onset Temp: Melting: Melting 179.6 °C

## CC(=O)c1nn(CC(=O)N2[C@H](C(=O)Nc3nc(Br)ccc3C)C[C@@]3(C)C[C@@H]23)c2c(C)cc(-c3cnc(C)nc3)cc12 [Compound 2]
[6]; 5° C./NR RH, 1-month
  Assay: 97.3%
  Total Impurities: 1.9%
  Water Content: 2.5%
  XRPD: amorphous
[6]; 5° C./NR RH, 3-month
  Assay: 97.5%
  Total Impurities: 1.7%
  Water Content: 2.3%
[6]; 5° C./NR RH, Time Zero
  Assay: 97.2%
  Total Impurities: 1.9%
  Water Content: 1.9%
  XRPD: amorphous
[6]; 25° C./60% RH, 1-month
  Assay: 97.0%
  Total Impurities: 1.9%
  Water Content: 3.0%
  XRPD: amorphous
[6]; 25° C./60% RH, 2 weeks
  Assay: 99.5%
  Total Impurities: 1.9%
  Water Content: 2.7%%
[6]; 25° C./60% RH, 3-month
  Assay: 97.8%
  Total Impurities: 1.9%
  Water Content: 3.1%
[6]; 25° C./60% RH, Time Zero
  Assay: 97.2%
  Total Impurities: 1.9%
  Water Content: 1.9%
  XRPD: amorphous
[6]; 40° C./75% RH, 1-month
  Assay: 97.5%
  Total Impurities: 1.9%
  Water Content: 4.0%
  XRPD: amorphous
[6]; 40° C./75% RH, 2 weeks
  Assay: 99.8%
  Total Impurities: 1.9%
  Water Content: 3.5%
[6]; 40° C./75% RH, 3-month
  Assay: 96.4%
  Total Impurities: 1.6%
  Water Content: 3.8%
[6]; 40° C./75% RH, Time Zero
  Assay: 97.2%
  Total Impurities: 1.9%
  Water Content: 1.9%
  XRPD: amorphous
[7]
  efflux ratio: 1.2
Caco2
  Caco2: A-B: Caco2: A-B ~26 × 10^−6 cm/s
[8]
  BCS class: BCS II compound
[8]; for 125 mg
  Dose Number: Dose Number (for 125 mg): 106-190
Thermal stability by TGA
  Thermal Stability by TGA: ~0.2% wt. loss to 150 °C
[9]; 0.1N HCl
  Solution stress testing: Acid degradation: Degradation observed
[9]; 0.1N HCl, 7-days at RT
  Acid degradation, extent: (~8% 7-days at RT)
[9]; 0.1N NaOH
  Solution stress testing: Base degradation: Degradation observed
[9]; 0.1N NaOH, 2-days at RT
  Base degradation, extent: (~18% 2-days at RT)
[9]; H2O2
  Solution stress testing: Oxidative degradation: Not susceptible to oxidation
[10]; 70° C./75% RH
  Solid State Stress Testing: Chemical Stability: No degradation
  Solid State Stress Testing: Humidity: Amorphous crystallizes out
[10]; exposure to UV visible
  Solid State Stress Testing: Photostability: No light sensitivity
[11]; FaSSIF, read-out: FaSSIF solubility
  solubility: 2.6 µg/mL (≈ 0.00422 mM)
[11]; FeSSIF, read-out: FeSSIF solubility
  solubility: 4.7 µg/mL (≈ 0.00762 mM)

## CC(=O)c1nn(CC(=O)N2[C@H](C(=O)Nc3nc(Br)ccc3C)C[C@@]3(C)C[C@@H]23)c2ccc(-c3cnc(C)nc3)cc12 [Form G]
[1]; ~50° C.
  Interconversion: XRPD Result after heating: Form G
[1]; ~160° C.
  Interconversion: XRPD Result after heating: Form M

## CC(=O)c1nn(CC(=O)N2[C@H](C(=O)Nc3nc(Br)ccc3C)C[C@@]3(C)C[C@@H]23)c2ccc(-c3cnc(C)nc3)cc12 [Lyophilized Compound 3]
[12]; 2-propanol/heptane mixtures, organic solvent or mixture, 2-propanol, 95% 2-propanol/5% heptane, 70% 2-propanol/30% heptane, toluene, elevated temperatures (40° C.), read-out: Solubility (solvent addition), dissolution at elevated temperatures
  solubility: > 200000 µg/mL
[12]; organic solvent or mixture, 1,4-dioxane, 1-butanol, 2-methyl THF, 95% 2-propanol/5% water, acetone, acetonitrile, 95% acetonitrile/5% water, chloroform, DCM, DMSO, ethyl acetate (dry), ethanol, isopropyl acetate, methanol, MEK, MIBK, DMF, DMA, THF, 95% methanol/5% water, read-out: Solubility (solvent addition)
  solubility: ≥ 200000 µg/mL
[12]; organic solvent or mixture, 50% 2-propanol/50% heptane and 50% ethanol/50% heptane (% v/v), read-out: Solubility (solvent addition)
  solubility: > 100000 µg/mL
[12]; n-heptane, tert-butylmethyl ether, ethyl ether, water, 50% 2-propanol/50% water, 40% ethanol/60% water, read-out: Solubility (solvent addition)
  solubility: < 10000 µg/mL
[13]
  Stability: recrystallization upon storage: no recrystallization
